Results published in ChEMBL document CHEMBL5154848, “Synthesis of heterocyclic ring-fused analogs of HMG499 as novel degraders of HMG-CoA reductase that lower cholesterol” (Eur J Med Chem, 2022).
Activity calls are given as the source filed them. The calls are words filed in the database; no cut-off is given here.

Key:
[1] = Downregulation of lovastatin-induced HMGCR expression in CHO-K1 cells assessed as fold change in HMGCR expression at 1 uM incubated for 16 hrs by immunoblot analysis (reference value: 15.2); type: functional, Cricetulus griseus
[2] = Downregulation of lovastatin-induced HMGCR expression in CHO-K1 cells assessed as fold change in HMGCR expression at 3 uM incubated for 16 hrs by immunoblot analysis (reference value: 15.2); type: functional, Cricetulus griseus
[3] = Downregulation of lovastatin-induced HMGCR expression in CHO-K1 cells assessed as fold change in HMGCR expression at 10 uM incubated for 16 hrs by immunoblot analysis (reference value: 15.2); type: functional, Cricetulus griseus
CHO-7 = assay: Growth inhibition of CHO-7 cells at 0.3 to 10 uM cultured for 7 days in sterol depleted medium in the absence of cholesterol and measured on day 8 by crystal violet staining based microscopic analysis; type: functional, cell-based; details: Cricetulus griseus, dose 0.3-10 µM, time 8.0 day
LX-2 [4] = assay: Antiproliferative activity against human LX2 cells assessed as reduction of TGF-beta1 induced proliferation by CCK-8 assay; type: functional, cell-based; details: DDE = dose-dependent effect
LX-2 [5] = assay: Downregulation of TGF-beta-1-induced COL1A1 mRNA levels in serum starved human LX2 cells pretreated with TGF-beta-1 for 6 hrs followed by compound treatment for 24 hrs by SYBR green dye based qRT-PCR analysis; type: functional, cell-based; details: dose <= 2.0 µM, DDE = dose-dependent effect
LX-2 [6] = assay: Downregulation of TGF-beta-1-induced alpha-SMA protein level in serum starved human LX2 cells pretreated with TGF-beta-1 for 6 hrs followed by compound treatment for 24 hrs by Western blot analysis; type: functional, cell-based; details: DDE = dose-dependent effect
RAW264.7 [7] = assay: Downregulation of LPS-stimulated TNF-alpha mRNA levels in mouse RAW264.7 cells pretreated with LPS for 2 hrs followed by compound treatment for 24 hrs by SYBR green dye based qRT-PCR analysis; type: functional, cell-based; details: dose <= 2.0 µM, DDE = dose-dependent effect
RAW264.7 [8] = assay: Downregulation of LPS-stimulated IL-6 mRNA levels in mouse RAW264.7 cells pretreated with LPS for 2 hrs followed by compound treatment for 24 hrs by SYBR green dye based qRT-PCR analysis; type: functional, cell-based; details: dose <= 2.0 µM, DDE = dose-dependent effect
[9] = molecular target: T1, 3-hydroxy-3-methylglutaryl-coenzyme A reductase (Cricetulus griseus, UniProt P00347); assay: Induction of degradation of endogenous HMGCR in CHO-7 cells assessed as decrease in protein level incubated for 16 hrs in sterol-depleted medium by immunoblot analysis; type: cell-based
T1 sequence (P00347 whole entry): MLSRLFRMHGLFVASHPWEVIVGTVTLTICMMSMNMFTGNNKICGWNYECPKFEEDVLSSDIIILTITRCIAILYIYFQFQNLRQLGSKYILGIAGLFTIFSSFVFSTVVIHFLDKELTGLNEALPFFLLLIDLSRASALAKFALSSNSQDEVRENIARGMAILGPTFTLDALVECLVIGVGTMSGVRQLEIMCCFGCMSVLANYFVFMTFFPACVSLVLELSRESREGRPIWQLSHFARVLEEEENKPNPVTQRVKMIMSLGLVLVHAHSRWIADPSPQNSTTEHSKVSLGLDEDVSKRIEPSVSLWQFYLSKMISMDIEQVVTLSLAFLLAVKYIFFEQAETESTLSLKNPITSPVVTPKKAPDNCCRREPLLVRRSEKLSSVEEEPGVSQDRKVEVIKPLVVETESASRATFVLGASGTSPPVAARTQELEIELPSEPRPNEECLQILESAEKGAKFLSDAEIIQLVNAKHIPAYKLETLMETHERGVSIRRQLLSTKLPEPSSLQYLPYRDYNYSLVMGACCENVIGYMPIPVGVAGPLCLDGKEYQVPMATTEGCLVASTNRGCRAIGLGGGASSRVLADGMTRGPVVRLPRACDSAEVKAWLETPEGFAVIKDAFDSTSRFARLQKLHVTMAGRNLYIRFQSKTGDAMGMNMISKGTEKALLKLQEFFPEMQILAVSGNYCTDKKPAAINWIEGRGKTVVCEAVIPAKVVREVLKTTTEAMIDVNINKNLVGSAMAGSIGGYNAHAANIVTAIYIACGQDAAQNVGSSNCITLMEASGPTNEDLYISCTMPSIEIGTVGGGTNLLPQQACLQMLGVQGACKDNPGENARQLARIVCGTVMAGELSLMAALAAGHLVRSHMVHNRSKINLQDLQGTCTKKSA

In the case of CC(=O)n1ncc2c1C(C)(C)C1=CC[C@H]3[C@@H]4CC[C@H]([C@H](C)CCC(=O)N5CCOCC5)[C@@]4(C)CC[C@@H]3[C@@]1(C)C2, the “fold change (FC)” value [1] is reported as 2.4, the “fold change (FC)” value [2] is reported as 1 and the “fold change (FC)” value [3] is reported as 0.4. For the same compound, the inhibition (CHO-7) was “Active”, the Activity (LX-2 [4]) was “Dde” and the Activity (LX-2 [5]) was “Dde”. For the same compound, the Activity (LX-2 [6]) was “Dde”, the Activity (RAW264.7 [7]) was “Dde” and the Activity (RAW264.7 [8]) was “Dde”. It also gave an EC50 [9] of 130 nM.
